Each structure is given as a SMILES string.

For data set [1], the system named is HepG2 human cells. On the set-up: method as in http://dx.doi.org/10.6019/CHEMBL3507680. The note with it: ref http://dx.doi.org/10.6019/CHEMBL3507680; cited from earlier work.
In data set [2] the test system is P. falciparum stage V male gametocytes (male gamete formation). Description: P. falciparum dual gamete formation assay (Pf DGFA), male readout (exflagellation), 48 h carry-over format. Type of data set: cell-based, Plasmodium falciparum NF54. The note with it: Plasmodium falciparum, 24h preincubation/carry-over.
Data set [3] has as its system P. berghei strain CTRPpGFP early mosquito stage (ookinete) development. Nature of the data set: P. berghei ookinete development assay (Pb ODA). Type of data set: cell-based, Plasmodium berghei. The note with it: for IC50: Plasmodium berghei, 24h incubation. The procedure:
All mouse procedures were performed in accordance with the UK Animals (Scientific Procedures) Act (PPL 70/7185) and approved by the Imperial College Animal Welfare and Ethical Review Body (AWERB). The ability of test compounds to inhibit P. berghei early mosquito stage development was tested in the Ookinete Development Assay[37] with a few exceptions. Anaesthetised 6- to 8-week-old female Tucks Ordinary (TO) mice infected with P. berghei strain CTRPpGFP[38] were rapidly exsanguinated by cardiac puncture and 500 µl of blood diluted in 25 ml of ookinete medium supplemented with 20% foetal bovine serum. Immediately the blood/medium mixture was dispensed by multichannel pipette into 384 well plates containing pre-plated test compounds. 10 µM cycloheximide and DMSO were used as the positive and negative controls, respectively. Plates were stored in the dark in a humidified incubator at 18 °C for 24 h. Ookinete production was imaged by fluorescence microscopy of GFP expression under the ookinete-specific CTRP promoter using a Nikon Ti-E widefield microscope and ×10 objective. Ookinete production was quantified using ICY and percentage inhibition calculated as above with reference to positive and negative controls.

Data set [4] relates to P. falciparum female gamete formation. Nature of the data set: Pf DGFA add-in format, female readout. Particulars: Plasmodium falciparum; 0h preincubation/add-in. Type of data set: cell-based. The procedure: (§1) In profiling mode, the Pf DGFA was performed in 96-well plates[23] in wash-out and add-in formats to aid manual manipulation steps. In the wash-out format, gametocytes were incubated for 24 h with test compounds in round-bottomed 96 well plates and then culture medium replaced three times over 6 h, to remove as much of the compound as possible from the well. […] In add-in format, gametocytes were added directly to flat-bottomed 96-well plates containing test compounds, ookinete medium and anti-Pfs25.

Data set [5] deals with T1, recombinant luciferase (Photinus pyralis) (Photinus pyralis, UniProt P08659).
T1 construct: purchased Promega E1701
T1 sequence (P08659 whole entry): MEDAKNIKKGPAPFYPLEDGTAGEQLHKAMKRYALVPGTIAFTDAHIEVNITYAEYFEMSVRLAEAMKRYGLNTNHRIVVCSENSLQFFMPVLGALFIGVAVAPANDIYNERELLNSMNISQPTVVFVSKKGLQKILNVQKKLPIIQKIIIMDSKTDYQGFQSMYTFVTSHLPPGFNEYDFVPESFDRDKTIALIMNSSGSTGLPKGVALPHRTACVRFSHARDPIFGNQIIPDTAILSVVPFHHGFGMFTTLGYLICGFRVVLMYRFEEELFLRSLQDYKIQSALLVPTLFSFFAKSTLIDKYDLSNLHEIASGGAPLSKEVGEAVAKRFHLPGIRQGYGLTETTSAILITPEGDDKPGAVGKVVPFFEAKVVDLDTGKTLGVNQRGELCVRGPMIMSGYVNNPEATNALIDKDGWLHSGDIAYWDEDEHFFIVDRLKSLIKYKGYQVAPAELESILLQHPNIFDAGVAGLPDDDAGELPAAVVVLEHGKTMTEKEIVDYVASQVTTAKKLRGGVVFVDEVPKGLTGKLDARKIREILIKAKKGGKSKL
Description: Recombinant luciferase inhibition assay. Type of data set: biochemical. The note with it: 1h incubation; read-out: Recombinant luciferase assay IC50. The procedure:
A counter-screen to the P. berghei liver stage assay was run against recombinant luciferase (Photinus pyralis) to measure the intrinsic bioluminescence inhibition from select compounds. Briefly, compounds were plated in 12-point serial dose response (50–2.82 × 10^−4 µM) in 1536-well opaque-bottom plates (789173-F, Greiner Bio-One). A 20 pM QuantiLum® Recombinant Luciferase (E1701, Promega) containing solution was made in screening media (DMEM, 11965–092, Invitrogen; 5% FBS, 35–011-CV, Corning; 5x Pen Strep Glutamine, 10378–016, Invitrogen), and 8 µl were added to each well. After 1 h incubation at room temperature, 2 µl of Bright-Glo™ (E2610, Promega) were dispensed per well, and bioluminescence was immediately measured using the EnVision microplate reader (PerkinElmer). DMSO (0.5%) and Luciferase Inhibitor-2 (9.8 µM) (119114, MilliporeSigma) served as negative and positive controls, respectively.

Data set [6] has as its system HepG2 cells. Nature of the data set: HepG2 toxicity (CellTiter-Glo, parallel to liver stage assay). Type of data set: cell-based, human. The note with it: human, 48 h. The procedure: Compound inhibition of P. berghei sporozoite liver infection was assessed in a high-throughput luciferase assay. 1536-well plates (789173-F, Greiner Bio-One) were pre-seeded with 5 µl HepG2-A16-CD81^EGFP cells grown in DMEM (11965–092, Invitrogen) containing 10% FBS (35–011-CV, Corning) and 1× Pen Strep Glutamine (10378–016, Invitrogen). Then, 50 nl of compound in DMSO was dispensed in 12-point serial dilution dose-response format (50 µM to 2.82 × 10^−4 µM), and incubated overnight.A. stephensi mosquitoes infected with P. berghei-ANKA-GFP-Luc-SMCON (Pb-Luc)[41] sporozoites bearing the antifolate-resistance-conferring Toxoplasma gondii dihydrofolate reductase-thymidylate synthase selectable marker, pyR2. After dissection, ~1000 sporozoites in 5 µl screening media (DMEM, 11965–092, Invitrogen; 5% FBS, 35–011-CV, Corning; 5x Pen Strep Glutamine, 10378–016, Invitrogen) were added per well and incubated for 48 h (37 °C, 5% CO2). Bioluminescence was measured using an EnVision microplate reader (Perkin Elmer), following the addition of 2 µl per well of Bright-Glo™ (Promega). Compound toxicity against HepG2 cells was determined in parallel by measuring cellular ATP levels reported by luciferase activity. Methods were similar to the P. berghei liver stage assay, except for the addition of CellTiter-Glo® (Promega) as a detection reagent. DMSO (0.5%) was used as a negative control in both assays, with Atovaquone (5 µM) and Puromycin (10 µM) acting as positive controls in the P. berghei and toxicity assays, respectively.
In general terms: In ATP-based viability assays light output follows the ATP content of the culture.

The subject of data set [7] is P. falciparum male gamete formation. Nature of the data set: Pf DGFA add-in format, male readout. Particulars: Plasmodium falciparum; 0h preincubation/add-in. Type of data set: cell-based, Plasmodium falciparum. The procedure:
as §1

As for `CC(=O)c1c(C)nn(CC(=O)Nc2ccc(Br)cc2)c1C` [DDD01027599], the “%Inh HepG2 @10uM” value in data set [1] is recorded as 4.72%. In addition, the half-inhibitory concentration (IC50) is 4.03 µM in data set [2]; over 12.5 µM in data set [3]; over 10 µM in data set [4]; over 50 µM in data set [5]; over 10 µM in data set [7]. Moreover, the “Human HepG2 assay TOX50” value in data set [6] was 25.00 µM.
As for `O=S(=O)(NCC1(O)CCOc2ccccc21)c1ccccc1F` (stereo not drawn) [DDD01028073], the “%Inh HepG2 @10uM” value in data set [1] is given as -4.25%. In addition, the IC50 in data set [2] is 0.58 µM; in data set [3] it was 0.3 µM; in data set [4] it was over 10 µM; in data set [5], over 50 µM; in data set [7], 0.34 µM. Also, in data set [6], the “Human HepG2 assay TOX50” value was over 50.0 µM.
Take `Cc1ccc(S(=O)(=O)NCC2(O)CCOc3ccccc32)s1` (stereo not drawn) [DDD01028074]: in data set [1], the “%Inh HepG2 @10uM” value is listed as -4.01%. For the same compound, the IC50 was 0.79 µM in data set [2]; 0.29 µM in data set [3]; over 10 µM in data set [4]; over 50 µM in data set [5]; 0.61 µM in data set [7]. For the same compound, the “Human HepG2 assay TOX50” value in data set [6] was over 50.0 µM.
As for `O=S(=O)(NCC1(O)CCOc2ccccc21)c1ccc(Cl)s1` (stereo not drawn) [DDD01028075], the “%Inh HepG2 @10uM” value in data set [1] is on record as -6.65%. The concentration for half-maximal inhibition (IC50) in data set [2] is 1.32 µM; in data set [3], 0.34 µM; in data set [4] it was over 10 µM; in data set [5], over 50 µM; in data set [7] it was 0.24 µM. In addition, the “Human HepG2 assay TOX50” value in data set [6] is listed as over 50.0 µM.
Regarding `O=S(=O)(NCC1(O)CCOc2ccccc21)c1ccccc1Br` (stereo not drawn) [DDD01028076], the “%Inh HepG2 @10uM” value in data set [1] is reported as -0.163%. In addition, the IC50 in data set [2] is 0.48 µM; in data set [3], 0.22 µM; in data set [4], over 10 µM; in data set [5], over 50 µM; in data set [7] it was 0.53 µM. Besides, the “Human HepG2 assay TOX50” value in data set [6] is recorded as over 50.0 µM.
For `COc1cccc(-n2ccc3nc(N4CCCC4)ncc3c2=O)c1` [DDD01034957], in data set [1], the “%Inh HepG2 @10uM” value is -4.05%. In addition, the IC50 in data set [2] is over 12.5 µM; in data set [3], over 12.5 µM; in data set [4], over 10 µM; in data set [5], 6.7 µM; in data set [7] it was over 10 µM. Further, the “Human HepG2 assay TOX50” value in data set [6] is over 50.0 µM.
With `O=S(=O)(NCC1(O)CCOc2ccccc21)c1cccs1` (stereo not drawn) [DDD01035879], the “%Inh HepG2 @10uM” value in data set [1] was 3.15%. Besides, the IC50 in data set [2] was 0.89 µM; in data set [3], 0.29 µM; in data set [4] it was over 10 µM; in data set [5], over 50 µM; in data set [7], 0.28 µM. In data set [6], the “Human HepG2 assay TOX50” value is on record as over 50.0 µM.
For `O=S(=O)(NCC1(O)CCOc2ccccc21)c1ccc(Br)s1` (stereo not drawn) [DDD01035881], the “%Inh HepG2 @10uM” value in data set [1] is 3.29%. The IC50 is 0.26 µM in data set [2]; 0.11 µM in data set [3]; over 10 µM in data set [4]; over 50 µM in data set [5]; 0.19 µM in data set [7]. Moreover, the “Human HepG2 assay TOX50” value in data set [6] was over 50.0 µM.
In the case of `Cc1cccc(NC(=O)c2cccc(OCc3nnnn3C)c2)n1` [DDD01038630], the “%Inh HepG2 @10uM” value in data set [1] is 18.75%. Besides, the IC50 in data set [2] is over 12.5 µM; in data set [3] it was over 12.5 µM; in data set [4], over 10 µM; in data set [5], over 50 µM; in data set [7], over 10 µM. For the same compound, the “Human HepG2 assay TOX50” value in data set [6] is given as over 50.0 µM.
On to `CC(c1ccco1)N(C(=O)CNc1ccc(C#N)cc1)C1CC1` (stereo not drawn) [DDD01062645], for which, in data set [1], the “%Inh HepG2 @10uM” value was 4.38%. For the same compound, the concentration for half-maximal inhibition (IC50) was over 12.5 µM in data set [2]; over 12.5 µM in data set [3]; 5.05 µM in data set [4]; over 50 µM in data set [5]; 0.44 µM in data set [7]. In addition, the “activity in P. berghei ookinete development assay” value in data set [3] (profiling) is “inactive”. Further, in data set [6], the “Human HepG2 assay TOX50” value is reported as over 50.0 µM.
In the case of `Cc1ccc(CN(c2cc(C)nc3nc(C(F)(F)F)nn23)C2CC2)cc1` [DDD01063654], in data set [1], the “%Inh HepG2 @10uM” value is reported as 0.83%. In addition, the IC50 in data set [2] is over 12.5 µM; in data set [3], over 12.5 µM; in data set [4] it was over 10 µM; in data set [5], over 50 µM; in data set [7] it was over 10 µM. In addition, the “Human HepG2 assay TOX50” value in data set [6] was over 50.0 µM.

What is called IC50 is the midpoint of a concentration-inhibition curve.

The record behind these values is PMC6143625, “A high throughput screen for next-generation leads targeting malaria parasite transmission” (Nature Communications, 2018).
